Source: ChEMBL document CHEMBL1146652, “Synthesis and CB1 receptor activities of novel arachidonyl alcohol derivatives” (Bioorg Med Chem Lett, 2004)

Assays:
[1] = molecular target: Cannabinoid receptor 1 (Rattus norvegicus) (UniProt P20272); assay: Maximal response of cannabinoid receptor to compound was evaluated using [35S]GTP-gamma-S-binding studies; assay type: functional
[2] = molecular target: Cannabinoid receptor 1 (Rattus norvegicus, UniProt P20272); assay: Cannabinoid receptor 1 dependent activity of compound was evaluated by using [35S]GTP-gamma-S-binding studies; assay type: functional
Chain of Cannabinoid receptor 1 (P20272 whole entry): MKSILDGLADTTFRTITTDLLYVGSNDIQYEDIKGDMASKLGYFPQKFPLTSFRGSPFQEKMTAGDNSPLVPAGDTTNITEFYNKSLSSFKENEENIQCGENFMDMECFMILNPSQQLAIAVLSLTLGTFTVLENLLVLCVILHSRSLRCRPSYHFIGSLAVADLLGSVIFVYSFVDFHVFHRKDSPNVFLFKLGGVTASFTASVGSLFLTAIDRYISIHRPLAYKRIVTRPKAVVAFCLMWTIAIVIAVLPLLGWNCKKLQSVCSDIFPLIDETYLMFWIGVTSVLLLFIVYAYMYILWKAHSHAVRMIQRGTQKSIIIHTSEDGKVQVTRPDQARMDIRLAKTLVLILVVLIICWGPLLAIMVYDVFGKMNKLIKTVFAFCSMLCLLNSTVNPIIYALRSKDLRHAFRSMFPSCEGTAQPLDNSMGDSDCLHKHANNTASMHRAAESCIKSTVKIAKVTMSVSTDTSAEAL

Chain of Cannabinoid receptor 1 (Rattus norvegicus) (P20272 whole entry): as above

Row | Compound | Emax [1] | EC50 [2]
1 | CCCCC/C=C\C/C=C\C/C=C\C/C=C\CCCCOC(=O)[C@@H](O)CO | 278% | 39.8 µM
2 | CCCCC/C=C\C/C=C\C/C=C\C/C=C\CCCCOC(=O)[C@H](O)CO | 301% | 25.1 µM
3 | CCCCC/C=C\C/C=C\C/C=C\C/C=C\CCCC(=O)NCCO | 380% | 
